According to patent US20250145589A1, “PYRIDINE DERIVATIVE AND USE THEREOF” (SICHUAN HUIYU PHARMACEUTICAL CO., LTD., priority 2021, published 2025):
Where two headings read alike, the source gives them in different places.

Key:
[1] = biological target: PI3Kδ (Homo sapiens (Human), UniProt O00329); assay: Inhibition of PI3Kδ efficacy assay (ADP-Glo kinase assay); format: biochemical; conditions: read-out: PI3Kδ inhibitory activity (IC50)
In short: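 Luminescent ADP-Glo readout of PI3Kδ: after a 60 min RT reaction with PI/ATP substrate, ATP depletion (40 min) and ADP detection (40 min) steps followed. Compounds tested as eight five-fold serial dilutions; inhibition rates fitted to log(inhibitor) vs. response, variable slope, for IC50.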

[2] = tested on: NCI-H358 cells (KRAS G12C mutant); assay: NCI-H358 cell proliferation inhibition (CellTiter-Glo); format: cell-based; conditions: Homo sapiens, NCI-H358, 72 h; H358 cells (G12C mutation), 3 days, Table 6; read-out: NCI-H358 (IC50)
[3] = biological target: PI3Kα (Homo sapiens (Human), UniProt P42336); assay: Inhibition of PI3Kα efficacy assay (ADP-Glo kinase assay); format: biochemical; conditions: read-out: PI3Kα inhibitory activity (IC50)
In short: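 Eight five-fold dilutions of compound (2 mM DMSO stock) tested; kinase reaction with PI and ATP ran 60 min at RT, followed by ADP-Glo and detection reagent steps of 40 min each. Four-parameter logistic fitting gave IC50 values.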

[4] = tested on: MIA PaCa-2-AMGR drug-resistant cell line; assay: MIA PaCa-2-AMGR drug-resistant cell proliferation inhibitory activity test; format: cell-based; conditions: 72 h, MIA PaCa-2-AMGR drug-resistant cells, 3 days incubation, CellTiter-Glo
In short: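 Viability was read by CellTiter-Glo luminescence after 3 days of compound exposure (8 points, 5-fold serial dilution), with IC50 derived relative to untreated control. Cells: AMG510-resistant MIA PaCa-2 (selected stepwise to 1 μM AMG510), 4×10^3/well, DMEM + 10% FBS + 2.5% horse serum, 37° C.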

Chain of PI3Kα (P42336 whole entry): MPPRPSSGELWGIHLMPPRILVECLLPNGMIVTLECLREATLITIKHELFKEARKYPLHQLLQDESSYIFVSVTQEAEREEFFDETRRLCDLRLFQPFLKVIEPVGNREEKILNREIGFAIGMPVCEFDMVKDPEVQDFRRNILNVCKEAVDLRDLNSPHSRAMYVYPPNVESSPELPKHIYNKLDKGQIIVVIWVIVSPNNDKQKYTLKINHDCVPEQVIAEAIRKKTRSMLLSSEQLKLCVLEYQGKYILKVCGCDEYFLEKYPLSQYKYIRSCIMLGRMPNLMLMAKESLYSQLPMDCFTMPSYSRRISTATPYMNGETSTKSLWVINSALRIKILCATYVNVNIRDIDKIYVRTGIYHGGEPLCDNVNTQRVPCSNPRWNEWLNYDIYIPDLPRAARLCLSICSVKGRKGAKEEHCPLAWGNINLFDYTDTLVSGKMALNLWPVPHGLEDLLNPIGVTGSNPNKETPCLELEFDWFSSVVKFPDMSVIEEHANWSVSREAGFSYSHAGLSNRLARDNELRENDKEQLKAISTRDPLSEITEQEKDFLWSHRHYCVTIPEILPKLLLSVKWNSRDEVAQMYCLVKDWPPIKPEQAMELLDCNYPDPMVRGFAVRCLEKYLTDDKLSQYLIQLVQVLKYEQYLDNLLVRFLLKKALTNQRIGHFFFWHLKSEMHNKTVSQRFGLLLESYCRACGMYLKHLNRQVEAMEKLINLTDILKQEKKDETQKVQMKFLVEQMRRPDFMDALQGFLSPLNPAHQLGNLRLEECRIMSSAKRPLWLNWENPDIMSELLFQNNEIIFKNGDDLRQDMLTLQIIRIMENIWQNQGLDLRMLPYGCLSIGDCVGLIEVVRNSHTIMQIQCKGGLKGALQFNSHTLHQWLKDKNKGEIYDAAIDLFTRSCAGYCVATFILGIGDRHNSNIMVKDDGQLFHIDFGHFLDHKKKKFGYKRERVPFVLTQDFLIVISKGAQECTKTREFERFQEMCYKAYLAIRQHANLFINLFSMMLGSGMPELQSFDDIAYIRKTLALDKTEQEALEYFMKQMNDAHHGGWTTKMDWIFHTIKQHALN
Chain of PI3Kα (P27986 whole entry partner): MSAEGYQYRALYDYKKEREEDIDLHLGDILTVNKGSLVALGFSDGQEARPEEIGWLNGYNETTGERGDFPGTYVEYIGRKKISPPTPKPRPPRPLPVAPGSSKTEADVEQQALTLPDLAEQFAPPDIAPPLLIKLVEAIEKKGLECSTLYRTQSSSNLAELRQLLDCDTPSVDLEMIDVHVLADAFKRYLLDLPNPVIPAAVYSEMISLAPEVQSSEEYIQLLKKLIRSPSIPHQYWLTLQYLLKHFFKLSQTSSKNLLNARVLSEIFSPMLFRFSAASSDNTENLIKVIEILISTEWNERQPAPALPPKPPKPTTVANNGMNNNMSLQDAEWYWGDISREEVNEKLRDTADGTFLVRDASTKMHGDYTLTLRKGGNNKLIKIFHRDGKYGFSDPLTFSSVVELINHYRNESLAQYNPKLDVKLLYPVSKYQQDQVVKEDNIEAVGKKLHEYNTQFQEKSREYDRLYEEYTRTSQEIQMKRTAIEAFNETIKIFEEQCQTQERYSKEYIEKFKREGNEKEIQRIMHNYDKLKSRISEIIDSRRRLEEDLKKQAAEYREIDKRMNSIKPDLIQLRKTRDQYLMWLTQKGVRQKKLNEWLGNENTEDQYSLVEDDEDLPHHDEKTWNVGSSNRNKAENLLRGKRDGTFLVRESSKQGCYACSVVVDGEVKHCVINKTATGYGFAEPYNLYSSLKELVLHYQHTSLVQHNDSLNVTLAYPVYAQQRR
Chain of PI3Kδ (O00329 whole entry): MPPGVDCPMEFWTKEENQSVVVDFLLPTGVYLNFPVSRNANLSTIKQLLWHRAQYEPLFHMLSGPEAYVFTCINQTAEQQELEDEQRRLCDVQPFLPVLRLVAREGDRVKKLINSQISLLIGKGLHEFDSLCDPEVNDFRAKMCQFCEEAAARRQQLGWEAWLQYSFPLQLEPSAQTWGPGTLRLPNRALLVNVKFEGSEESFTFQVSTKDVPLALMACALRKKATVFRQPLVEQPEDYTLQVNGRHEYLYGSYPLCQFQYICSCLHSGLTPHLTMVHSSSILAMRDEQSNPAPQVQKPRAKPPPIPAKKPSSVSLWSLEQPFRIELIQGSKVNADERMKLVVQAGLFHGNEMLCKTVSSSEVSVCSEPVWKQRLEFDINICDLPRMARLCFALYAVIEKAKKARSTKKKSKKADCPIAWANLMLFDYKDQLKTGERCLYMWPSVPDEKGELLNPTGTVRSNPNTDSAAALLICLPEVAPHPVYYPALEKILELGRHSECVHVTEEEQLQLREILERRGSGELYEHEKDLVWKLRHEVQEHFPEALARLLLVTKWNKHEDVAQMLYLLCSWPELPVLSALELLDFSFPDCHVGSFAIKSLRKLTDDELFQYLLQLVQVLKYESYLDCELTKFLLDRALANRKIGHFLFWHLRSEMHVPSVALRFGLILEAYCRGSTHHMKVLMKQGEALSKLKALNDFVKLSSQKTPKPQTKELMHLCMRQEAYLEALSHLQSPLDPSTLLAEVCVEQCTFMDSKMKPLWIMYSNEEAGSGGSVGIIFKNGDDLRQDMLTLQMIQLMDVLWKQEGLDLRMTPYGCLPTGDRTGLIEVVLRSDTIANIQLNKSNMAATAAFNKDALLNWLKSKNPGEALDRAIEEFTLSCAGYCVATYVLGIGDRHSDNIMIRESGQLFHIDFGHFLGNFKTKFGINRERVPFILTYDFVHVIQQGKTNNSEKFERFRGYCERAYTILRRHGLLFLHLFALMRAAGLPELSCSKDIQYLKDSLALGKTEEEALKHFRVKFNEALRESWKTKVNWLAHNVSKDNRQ
Chain of PI3Kδ (P27986 whole entry partner): as the sequence (P27986 whole entry partner) above

Compound | IC50 ([1]; Table 4) [nM] | IC50 [2] [nM] | IC50 ([3]; Table 4) [nM] | IC50 [4] [nM] | IC50 ([1]; Table 2) [nM] | IC50 ([3]; Table 2) [nM]
COc1ncc(-c2ccc3ncnc(N4CCN(C(=O)/C=C/C(C)=O)CC4)c3n2)cc1NS(=O)(=O)c1c(F)cc(F)cc1F [Example 219, (E)-2,4-trifluoro-N-(2-methoxy-5-(4-(4-(4-oxopent-2-enoyl)piperazin-1-yl)pyrido[3,2-d]pyrimidin-6-yl)pyridin-3-yl) benzene-sulfonamide] | 11.6 | 7.3 | 0.91 | 6.4 |  | 
COc1ncc(-c2ccc3ncnc(N4CCN(C(=O)/C=C/C(C)=O)CC4)c3c2)cc1NS(=O)(=O)c1cccc(F)c1F [Example 90, (E)-2,3-difluoro-N-(2-methoxy-5-(4-(4-(4-oxopent-2-enoyl)piperazin-1-yl)quinazolin-6-yl)pyridin-3-yl)benzenesulfonamide] |  | 54.5 |  | 106 | 23.7 | 4
COc1ncc(-c2ccc3ncnc(N4CCN(C(=O)/C=C/C(C)=O)CC4)c3c2)cc1NS(=O)(=O)c1c(F)cncc1F [Example 102, (E)-3,5-difluoro-N-(2-methoxy-5-(4-(4-(4-oxopent-2-enoyl)piperazin-1-yl)quinazolin-6-yl)pyridin-3-yl)pyridine-4-sulfonamide] |  | 73 |  | 908 | 32.8 | 1.2
